Values after ≈ are worked out from the molar mass of the structure shown. Where a SMILES comes first, the peptide text is derived from it.
Tests used:
[1] = tested on: RAW 264.7 cells; test: MTT cytotoxicity test against RAW 264.7; assay type: cell-based, mice; details: 24 h
Protocol: The cell line RAW 264.7 was obtained from the Rio de Janeiro Cell Bank (CR108). These cells are macrophages derived from induced tumors in male BALB/c mice infected with Abelson’s murine leukemia virus ([Raschke et al., 1978]). RAW264.7 cells were grown in DMEM medium (Dulbecco’s Modified Eagle’s medium, composed of CaCl2 (anhydrous) 200 mg.ml^−1, Fe(NO3).9H2O 0.1 mg.ml^−1, KCL 400 mg.ml^−1, MgSO4 (anhydrous) 97.67 mg.ml^−1, NaCL 6.400 mg.ml^−1, NaH2PO4.H2O 125 mg.ml^−1) supplemented with 10% (v/v) of bovine fetal serum, 0.5% (v/v) of DMEM amino acid solution, 0.05% (w/v) gentamicin, 0.5% (w/v) of L-glutamine, and 0.5% (w/v) of penicillin/streptomycin (1,000 U.ml^−1) in an incubator containing 5% CO2, at 37°C, and 95% humidity ([Raschke et al., 1978]; [Nguyen et al., 2017]).
RAW 264.7 cells were seeded in 96-well plates, at a concentration of 10^4 cells/well, and incubated for 24 h. Each peptide was subsequently added at different micromolar concentrations (Table 1). Positive control was performed by cells in culture medium and negative control, as cell culture in lysis solution (10 mM Tris, 1 mM EDTA, and 0.1% Triton X-100, pH 7.4).
Cell viability analyses were performed in technical and biological replicates, and readings were obtained after 24 h of contact with peptides. At the end of the incubation period, MTT (Sigma-Aldrich, United States) was used to assess the ability of living cells to reduce salt 3-[4,5-dimethylthiazole-2-yl]-2,5-diphenyltetrazolium bromide for formazan production. Plates were read at 570 ηm ([Mosmann, 1983]) and results were expressed in the percentage of living cells. The results were analyzed using GraphPad Prism 8 software where a One-Way ANOVA statistical test was followed by Bonferroni’s multiple comparisons test.

[2] = tested on: K. pneumoniae (ATCC 13883); assay type: cell-based, Klebsiella pneumoniae; details: K. pneumoniae (ATCC13883); 5×10^5 CFU.ml^−1, Mueller-Hinton Broth, 37°C, 24 h, OD 595 nm, biological triplicates
Protocol: (§1) Susceptibility tests were performed using clinical isolates of Klebsiella pneumoniae carbapenemase (KPC 1410503) and methicillin-resistant S. aureus (MRSA 3730592). Tests were also performed with ATCC (American Type Culture Collection) isolates of K. pneumoniae (ATCC 13883) and S. aureus (ATCC 25923).
(§2) Two multidrug-resistant clinical isolates and two ATCC isolates were chosen to perform microbial susceptibility testing as models for studies with bacteria susceptible to antimicrobials found in the Gram-Positive and Gram-Negative groups of bacteria.
(§3) The broth microdilution method was performed according to the Clinical and Laboratory Standards Institute (CLSI) M07-A10 protocol to determine the Minimum Inhibitory Concentration (MIC; [Clinical Laboratory Standards Institute, 2015]). The assay was performed on 96-well microplates (TPP, United States), containing 5×10^5 CFU.ml^−1 of each tested bacterium per well and different peptide micromolar concentrations (Table 1) in a final volume of 100 μl of Mueller-Hinton Broth (MH). Negative control was represented by bacteria incubated in MH medium, while positive control was represented by culture incubated in MH medium with Amikacin. Plates were kept under agitation at 37°C in a BioTek spectrophotometer (PowerWaveTM HT Microplate Reader) with optical density (OD) readings at 595 nm every 30 min for 24 h. Inhibition results were analyzed using GraphPad Prism 8 software by comparing the OD from negative control wells (100%) to those containing peptides. All tests were performed in biological triplicates.

[3] = tested on: S. aureus (ATCC 25923); assay type: cell-based, Staphylococcus aureus; details: S. aureus (ATCC25923); 5×10^5 CFU.ml^−1, Mueller-Hinton Broth, 37°C, 24 h, OD 595 nm, biological triplicates
Protocol: as §1, §2, §3

[4] = tested on: methicillin-resistant S. aureus (MRSA 3730592); assay type: cell-based, Staphylococcus aureus; details: Methicillin-Resistant S. aureus—MRSA clinical isolate 3730592; 5×10^5 CFU.ml^−1, Mueller-Hinton Broth, 37°C, 24 h, OD 595 nm, biological triplicates
Protocol: as §1, §2, §3

[5] = tested on: C. parapsilosis (ATCC22019); test: Broth microdilution MIC (CLSI M27-A3 with modifications); assay type: cell-based, Candida parapsilosis; details: 2.5 × 10^3 CFU.ml^−1, Sabouraud medium, 24 h at 30°C, absorbance 595 nm
Protocol: The broth microdilution method was performed according to the Clinical and Laboratory Standards Institute Guideline M27-A3 with modifications to determine the Minimum Inhibitory Concentration (MIC; [Clinical Laboratory Standards Institute, 2008]).
Initially, the fungus C. parapsilosis (ATCC22019) was grown in a Petri dish containing Sabouraud Dextrose Agar medium (Dextrose 40 g/L; Peptic digestion of animal tissue 5.0 g.L^−1; and Agar 15 g.L^−1) for 48 h. Subsequently, a pre-inoculum was performed from a yeast colony that was placed in 10 ml of liquid Sabouraud medium and incubated for 16 h at 28°C, with a constant rotation of 200 rpm. After the incubation period, 2.5 × 10^3 CFU.ml^−1 of fungus per well was incubated with different peptide micromolar concentrations (Table 1) to assess the MIC for each peptide.
Fungal cells incubated with Sabouraud medium were used as negative control, while positive control was represented by fungal cells incubated in Sabouraud medium and amphotericin B (10 μM). Subsequently, plates were incubated for 24 h at 30°C. After this period, the absorbance was read (595 nm) in a BioTek spectrophotometer (PowerWaveTM HT Microplate Reader), and data of antifungal activity with percentage of inhibition of peptides were plotted in GraphPad Prism 8 Software.

[6] = tested on: Klebsiella pneumoniae carbapenemase (KPC 1410503); assay type: cell-based; details: K. pneumoniae carbapenemase—KPC clinical isolate 1410503; 5×10^5 CFU.ml^−1, Mueller-Hinton Broth, 37°C, 24 h, OD 595 nm, biological triplicates; NE = MIC value not found
Protocol: as §1, §2, §3

[7] = tested on: Spodoptera frugiperda (SF21) cells; test: In vitro test against insect cells (MTT); assay type: cell-based; details: lowest concentration tested (1 μM), 24 h
Protocol: To evaluate the ability of the peptides to cause lysis and morphological changes in insect cells ([Dutra, 2019]; Patent: BR 102022 006138 6) as a first screening of the insecticidal activity of the peptides, in this work, the Spodoptera IPLB-SF-21AE _LVI-Cenargen cell line ([Vaughn et al., 1977]) was used and different concentrations of the peptides were added to the culture medium.
Cells were maintained at 27°C in TNMFH medium (Grace’s insect medium supplemented with lactalbumin hydrolyzate and yeastolate), supplemented with 10% (v/v) fetal bovine serum (Sigma-Aldrich; [Castro et al., 2006]).
Cell cultivation was carried out in 10 ml culture bottles, model K11-1050 25cm^2, with 5 ml of culture medium per bottle. For the assays, the SF21 cells were grown in TNMFH medium, added 10% (v/v) of bovine fetal serum, and distributed in plates of 96 wells at the concentration of 2×10^4 cells per well, after counting was performed in the Neubauer chamber. Cell suspension was distributed in a volume of 100 μl per well. Peptides were diluted in TNMFH medium and 100 μl of medium with peptide was added, obtaining concentrations of 10, 5, and 1 μM, reaching the volume of 200 μl at the final concentrations of reaction per well. Cells were placed in incubation at 27°C, for 24 h.
After 24 h, the cells were analyzed for their modifications, morphological alterations, turbidity of the medium, formation of clumps, and/or lysis in the presence of peptides, by observation under optical microscopy (Nikon Eclipse TS100) with 20× and 40× magnification. Characteristics that could represent cell death or cell dysfunction caused by the peptides were observed compared to control cells. Cells were evaluated by cell viability using the MTT test 3-[4,5-dimethylthiazole-2-yl]-2,5-diphenyltetrazolium bromide 0.5 mg.ml^−1 (Sigma-Aldrich). To perform the test, the cell culture medium was discarded, and we added 100 μl of new medium. Ten μl of MTT was added to each well and incubated for 4 h, with the plates protected from light. After 4 h, we added 100 μl of DMSO to each well to dissolve the formazan crystals, and the reading in the microplate reader ([Riss et al., 2016]) was then performed. The results were analyzed using GraphPad Prism 8 software, where a One-Way ANOVA statistical test was followed by Bonferroni’s multiple comparisons test.

SMILES	viable cells (RAW264.7) in the MIC found for MRSA, S. aureus ATCC25923 and C. parapsilosis ATCC22019 ([1]; at the MIC of R1a for these strains (15.81 μM in Table 3))	toxicity on RAW264.7 macrophages in the concentration range of 33.77 μM (in words) ([1]; concentration range of 33.77 μM)	Minimum inhibitory concentration (MIC) [2]	Minimum inhibitory concentration (MIC) [3]	Minimum inhibitory concentration (MIC) [4]	Minimum inhibitory concentration (MIC) [5]	viable cells (RAW264.7) ([1]; 33.77 μM)	toxicity to RAW264.7 cells at the MIC concentration (in words) ([1]; R1b: MIC found for KPC1410503, R3b: MIC at high concentrations against all tested microorganisms)	Minimum inhibitory concentration (MIC) [6]	cell viability (RAW264.7) in the MIC found for MRSA3730592, S. aureus ATCC25923, K. pneumoniae ATCC13883 ([1]; at the MIC of R2b for these strains (17.15 μM in Table 3))	toxicity against RAW264.7 cells (in words) ([1]; tested concentrations of Table 1 (128–16 μg.ml^−1))	cell viability (SF21) [7]
CC(C)C[C@H](NC(=O)[C@H](C)NC(=O)CNC(=O)[C@H](Cc1ccccc1)NC(=O)CN)C(=O)N[C@@H](Cc1ccccc1)C(=O)N[C@@H](CCCCN)C(=O)N[C@@H](Cc1ccccc1)C(=O)N[C@@H](CC(C)C)C(=O)N[C@@H](C)C(=O)N[C@@H](CCCCN)C(=O)N[C@@H](CCCCN)C(=O)N[C@H](C(=O)N[C@@H](C)C(=O)N[C@@H](CCCCN)C(=O)N[C@H](C(=O)N[C@H](C(=O)N[C@@H](C)C(=O)N[C@@H](CCCCN)C(N)=O)C(C)C)[C@@H](C)O)C(C)C [Peptide R1a] (H-GFGALFKFLAKKVAKTVAK-NH2)	63%	high toxicity	31.63 µM (≈ 64 µg/mL)	15.81 µM (≈ 32 µg/mL)	15.81 µM (≈ 32 µg/mL)	15.81 µM (≈ 32 µg/mL)	–	–	–	–	–	–
CC(C)C[C@H](NC(=O)[C@H](C)NC(=O)CNC(=O)[C@H](Cc1ccccc1)NC(=O)CN)C(=O)N[C@@H](Cc1ccccc1)C(=O)N[C@@H](CCCCN)C(=O)N[C@@H](Cc1ccccc1)C(=O)N[C@@H](CC(C)C)C(=O)N[C@@H](C)C(=O)N[C@@H](CCCCN)C(=O)N[C@@H](CCCCN)C(=O)N[C@H](C(=O)N[C@@H](C)C(=O)N[C@@H](CCCCN)C(=O)N[C@H](C(=O)N[C@H](C(=O)N[C@@H](C)C(N)=O)C(C)C)[C@@H](C)O)C(C)C [Peptide R1b] (H-GFGALFKFLAKKVAKTVA-NH2)	–	–	33.77 µM (≈ 64 µg/mL)	33.77 µM (≈ 64 µg/mL)	33.77 µM (≈ 64 µg/mL)	16.88 µM (≈ 32 µg/mL)	58%	high toxicity	67.54 µM (≈ 128 µg/mL)	–	–	–
CC(C)C[C@H](NC(=O)[C@H](C)NC(=O)CNC(=O)[C@H](Cc1ccccc1)NC(=O)CN)C(=O)N[C@@H](Cc1ccccc1)C(=O)N[C@@H](CCCCN)C(=O)N[C@@H](Cc1ccccc1)C(=O)N[C@@H](CC(C)C)C(=O)N[C@@H](C)C(=O)N[C@@H](CCCCN)C(=O)N[C@@H](CCCCN)C(=O)N[C@H](C(=O)N[C@@H](C)C(=O)N[C@@H](CCCCN)C(=O)N[C@@H](C)C(=O)N[C@H](C(=O)N[C@@H](C)C(N)=O)C(C)C)C(C)C [Peptide R2b] (H-GFGALFKFLAKKVAKAVA-NH2)	–	–	17.15 µM (≈ 32 µg/mL)	17.15 µM (≈ 32 µg/mL)	17.15 µM (≈ 32 µg/mL)	34.31 µM (≈ 64 µg/mL)	–	–	34.31 µM (≈ 64 µg/mL)	above 50%	high toxicity	below 50%
